# In patent publication EP0623131B1 (ANGELINI RICERCHE S.p.A. SOCIETA' CONSORTILE, priority 1992, dated 1993):
# Assay: DL50 (acute lethal dose)
# Conditions: species, route and unit not given
row,Structure (SMILES),DL₅₀
1,"CC(CN1CCN(c2cccc(Cl)c2)CC1)Cn1nc2ccccn2c1=O (centres unmarked) [(I) R'=R""=R'''=H; R=CH₃, 2-[3-[4-(3-chlorophenyl)-1-piperazinyl]-2-methylpropyl]-1,2,4-triazole[4,3-a]-pyridin-3-(2H)-one]",≤ 600
2,"CC(CCn1nc2ccccn2c1=O)N1CCN(c2cccc(Cl)c2)CC1 (centres unmarked) [(I) R=R""=R'''=H; R'=CH₃, 2-[3-[4-(3-chlorophenyl)-1-piperazinyl]-3-methylpropyl]-1,2,4-triazole-[4,3-a]-pyridin-3(2H)-one]",≤ 300
3,"CC1CN(CCCn2nc3ccccn3c2=O)CCN1c1cccc(Cl)c1 (centres unmarked) [(I) R=R'=R""=H; R'''=CH₃, 2-[3-[4-(3-chlorophenyl)-1-(3-methyl)-piperazinyl]-propyl]-1,2,4-triazole-[4,3-a]-pyridin-3(2H)-one]",≤ 600
4,"CC1CN(c2cccc(Cl)c2)CCN1CCCn1nc2ccccn2c1=O (centres unmarked) [(I) R=R'=R'''=H; R""=CH₃, 2-[3-[4-(3-chlorophenyl)-1-(2-methyl)-piperazinyl]-propyl]-1,2,4-triazole-[4,3-a]-pyridin-3(2H)-one]",300
5,"O=c1n(CCCN2CCN(c3cccc(Cl)c3)CC2)nc2ccccn12 [trazodone, Trazodone, reference compound]",≥ 200
